Where “and” joins values, the source holds several entries; their conditions need not be identical. Equal values may be shown once.
Columns and labels:
CYP3A4 = CYP3A4 (Homo sapiens, UniProt P08684); assay: Induction/inhibition of CYP3A4 activity in cryopreserved human hepatocytes (testosterone)
Source text: (§1) Hepatocytes from three human donors were obtained from a cryopreserved hepatocyte bank (In Vitro Technologies, Inc., USA). After thawing, viable hepatocytes were transferred to collagen-coated 48-well plates for attachment in plating medium (DMEM stock (Dulbecco's modified Eagle's medium, supplemented with bovine serum albumin, fructose, N-(2-hydroxyethyl)piperazine-N′-(2-ethanesulfonate) (HEPES), and sodium bicarbonate), supplemented with antibiotics, bovine serum, hydrocortisone, insulin and minimum essential medium (MEM) nonessential amino acids). After attachment to the collagen matrix, plating medium was replaced with sandwich medium (plating medium supplemented with VITROGEN) and incubated until use.
(§2) The supplemented KHB was replaced with 150 μL supplemented KHB containing the appropriate isoform-selective substrate and incubated for 4 hrs prior to termination by adding 150 μL ice-cold methanol, except for the CYP2C8 incubations which were terminated by adding 150 μL acetonitrile.
(§3) All substrates were dissolved in acetonitrile.
(§4) Replicate trials and controls were performed. […] Additionally, reference control samples were included to evaluate inducibility of CYP2B6, CYP2C9, and CYP2C19 in the test system.
(§5) Mean specific activity values with associated p-values≦0.05 were deemed to be statistically significant.

CYP1A2 = target: T1, CYP1A2 (Homo sapiens, UniProt P05177); assay: Inhibition of CYP1A2 activity in pooled human liver microsomes (phenacetin 50 μM to acetaminophen); type: in vitro ADME
T1 sequence (P05177 1-516): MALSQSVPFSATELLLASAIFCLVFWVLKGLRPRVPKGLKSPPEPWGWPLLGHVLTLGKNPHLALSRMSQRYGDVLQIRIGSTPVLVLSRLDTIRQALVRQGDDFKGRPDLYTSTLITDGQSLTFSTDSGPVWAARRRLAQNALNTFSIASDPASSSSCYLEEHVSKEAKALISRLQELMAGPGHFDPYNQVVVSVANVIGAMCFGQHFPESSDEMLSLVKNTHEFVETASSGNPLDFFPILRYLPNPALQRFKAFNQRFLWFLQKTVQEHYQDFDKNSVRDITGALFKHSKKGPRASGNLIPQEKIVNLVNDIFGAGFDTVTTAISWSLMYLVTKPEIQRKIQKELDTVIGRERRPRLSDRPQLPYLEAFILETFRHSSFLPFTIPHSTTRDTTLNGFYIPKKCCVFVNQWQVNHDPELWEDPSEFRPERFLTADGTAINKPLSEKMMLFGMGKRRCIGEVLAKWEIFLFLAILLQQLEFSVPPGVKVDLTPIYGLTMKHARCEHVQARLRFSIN
Protocol: Microsomes were prepared by differential centrifugation of liver homogenates pooled from at least ten human donors.
After a 5 minute preincubation, NADPH regenerating system (NRS) was added to initiate the reaction. CYP2A6 and CYP3A4 incubations were for 10 minutes. All other incubations were for 30 minutes.
Incubations for CYP2C8 were terminated by adding 1.0 mL of ACN, while all other incubations were terminated by adding 1.0 mL of methanol.
Vehicle control experiments were performed to establish a baseline value for enzyme activity. […] Four replicates were performed.
Two replicates were performed. […] No interference was detected in any of the metabolite assay methods used.

CYP2E1 [1] = target: T2, CYP2E1 (Homo sapiens, UniProt P05181); assay: Metabolism of metaxalone by expressed recombinant human CYP2E1 (Example 1); settings: 30 min
T2 sequence (P05181 whole entry): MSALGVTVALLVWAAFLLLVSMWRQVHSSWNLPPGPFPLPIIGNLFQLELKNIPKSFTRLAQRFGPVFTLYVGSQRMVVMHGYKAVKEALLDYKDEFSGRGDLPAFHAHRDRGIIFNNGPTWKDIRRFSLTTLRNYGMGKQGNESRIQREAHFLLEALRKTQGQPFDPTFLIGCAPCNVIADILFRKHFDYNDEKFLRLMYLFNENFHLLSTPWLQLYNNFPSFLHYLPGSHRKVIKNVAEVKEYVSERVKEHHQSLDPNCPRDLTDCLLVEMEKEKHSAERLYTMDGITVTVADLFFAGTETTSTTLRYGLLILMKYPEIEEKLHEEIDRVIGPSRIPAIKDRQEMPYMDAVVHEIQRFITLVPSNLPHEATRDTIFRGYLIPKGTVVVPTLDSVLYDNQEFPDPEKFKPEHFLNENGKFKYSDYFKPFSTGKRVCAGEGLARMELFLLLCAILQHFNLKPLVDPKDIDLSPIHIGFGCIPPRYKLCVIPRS
Protocol: Commercially available microsomes from baculovirus-infected insect cells containing singly-expressed recombinant wild-type (*1 allele) human CYP enzymes and cDNA-expressed human cytochrome p450 oxidoreductase [BD SUPERSOMES Enzymes; BD Biosciences Discovery Labware (Woburn, Mass.)] were used.
After a 5-minute pre-incubation, an NADPH regenerating system (NRS) was added to the incubation mixtures to initiate reactions, with a final incubation volume of 0.5 mL. Incubations were continued for 30 minutes, and then terminated, except for those for CYP2C19, which were incubated for 36 minutes prior to termination.
Matrix controls were performed to determine the background signal from the matrix components (microsomes (10 pmol p450), 01N Tris buffer, NRS, and 1% methanol). […] After a 5-minute pre-incubation, 2% sodium bicarbonate solution was added to the incubation mixtures. Incubation was for 30 minutes at a final volume of 0.5 mL. Matrix and metabolic negative controls were terminated by adding an equal volume of methanol. […] Analysis of samples was subsequent to storage at −70° C.

CYP2A6 = assay: Chemical inhibition of metaxalone turnover in human liver microsomes, CYP2A6 inhibitor pilocarpine; settings: 1 mg/mL HLM, 60 min, with pilocarpine; for % Turnover / % inhibition of turnover / Conc.: single replicates
Protocol: Human liver microsomes pooled from 15 individuals (male and female) (Pool HMMC-PL020; CellzDirect, Inc., In Vitro Products and Services Division) were used in some experiments of this study.
% Turnover=100−{[TA(final)]/[mean of TA(0 min)]}×100,
% Inhibition of Turnover=100{1−([TA(0 min)]−[TA(final-inhibitor)])/([TA(0 min)]−[TA(final-no inhibitor)])}.
The inhibitors or vehicle control were incubated with the pooled human liver microsomes (1 mg/mL) and NADPH (1 mM) in 0.1 M phosphate buffer, pH 7.4. […] Incubations were conducted in triplicate and terminated by addition of organic solvent. Samples were extracted and analyzed by LC-MS/MS as described above.

CYP2D6 = CYP2D6 (Homo sapiens, UniProt P10635); assay: Induction/inhibition of CYP2D6 activity in cryopreserved human hepatocytes (dextromethorphan)
Sequence of CYP2D6 (P10635 whole entry): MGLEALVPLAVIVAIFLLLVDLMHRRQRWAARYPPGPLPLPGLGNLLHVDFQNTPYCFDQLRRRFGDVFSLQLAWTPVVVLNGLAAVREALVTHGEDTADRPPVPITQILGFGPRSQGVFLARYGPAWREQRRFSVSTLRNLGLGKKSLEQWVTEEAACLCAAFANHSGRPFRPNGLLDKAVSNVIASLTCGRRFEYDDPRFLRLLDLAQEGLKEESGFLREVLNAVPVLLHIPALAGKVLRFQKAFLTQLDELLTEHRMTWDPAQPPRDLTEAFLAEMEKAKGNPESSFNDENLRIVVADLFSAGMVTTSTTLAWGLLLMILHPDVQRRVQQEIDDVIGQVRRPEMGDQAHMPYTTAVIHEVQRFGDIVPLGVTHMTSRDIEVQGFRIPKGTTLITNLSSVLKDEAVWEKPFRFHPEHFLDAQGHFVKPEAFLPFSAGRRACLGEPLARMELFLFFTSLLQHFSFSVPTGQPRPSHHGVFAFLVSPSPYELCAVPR
Source text: as §1, §2, §3, §4, §5

CYP2E1 [2] = target: T2, CYP2E1; assay: Inhibition of CYP2E1 activity in pooled human liver microsomes (chlorzoxazone 50 μM to 6-hydroxy chlorzoxazone); type: in vitro ADME; parameters: host or cells: cryopreserved primary human hepatocytes from three donors
Protocol: All other incubations were for 30 minutes.
Four replicates were performed.
Two replicates were performed.

[3] = human, hepatocytes, 48 h, 40 μM

Sequence of CYP3A4 (P08684 whole entry): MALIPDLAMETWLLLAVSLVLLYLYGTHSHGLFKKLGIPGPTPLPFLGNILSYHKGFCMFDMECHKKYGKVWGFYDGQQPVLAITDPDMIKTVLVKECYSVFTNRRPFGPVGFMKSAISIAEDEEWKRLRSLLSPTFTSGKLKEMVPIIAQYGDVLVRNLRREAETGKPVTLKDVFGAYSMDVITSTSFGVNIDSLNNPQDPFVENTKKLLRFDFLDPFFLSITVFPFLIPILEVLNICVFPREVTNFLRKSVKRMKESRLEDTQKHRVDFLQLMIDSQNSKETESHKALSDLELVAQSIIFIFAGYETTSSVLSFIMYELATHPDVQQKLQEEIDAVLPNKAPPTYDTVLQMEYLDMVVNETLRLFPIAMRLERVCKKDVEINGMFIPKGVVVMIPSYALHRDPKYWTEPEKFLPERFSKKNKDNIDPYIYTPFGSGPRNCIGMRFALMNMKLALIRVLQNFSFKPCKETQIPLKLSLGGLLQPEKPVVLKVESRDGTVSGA

Cc1cc(C)cc(OCC2CNC(=O)O2)c1 (centres unmarked) [metaxalone, 5-[(3,5-dimethylphenoxy)methyl]-2-oxazolidinone]
Inducer/Inhibitor (CYP3A4): + | Specific Activity Mean ± SD (CYP3A4; Donor 2, Metaxalone 0.4 μM): 1.20 ± 0.109 pmol/min/million cells | 6β-Hydroxytestosterone formation Adjusted Mean ± SD (CYP3A4; human): 0.116 ± 0.00524 µM | Specific Activity Mean ± SD (CYP3A4; human): <0.905 ± 0.0213 pmol/min/million cells | 6β-Hydroxytestosterone formation Adjusted Mean ± SD (CYP3A4; human, 4 h, 4 μM): <0.100 ± 0.000 µM | Specific Activity Mean ± SD (CYP3A4; human, 48 h, 0.4 μM): <0.893 ± 0.000 pmol/min/million cells | effect on CYP3A4 activity (CYP3A4; human, hepatocytes, 48 h): did not induce CYP3A4 activity | induced CYP3A4 activity (CYP3A4; [3]): about 21% | inhibition of CYP activity at a statistically significant level (CYP1A2; 0.3-100 μM metaxalone, p≦0.05): inhibited | Inhibitor (CYP1A2; CYP isozyme 1A2, summary of studies): + | Percent of VC (CYP1A2; metaxalone 0.3 μM): 97.2% | Specific Activity Individual (CYP1A2; metaxalone 0.3 μM): 28.6 pmol/min/mg protein and 27.2 pmol/min/mg protein | Specific Activity Mean ± SD (CYP1A2; metaxalone 0.3 μM): 28.0 ± 0.715 pmol/min/mg protein | Percent of VC (CYP1A2; metaxalone 1 μM): 92.3% | Specific Activity Individual (CYP1A2; metaxalone 1 μM): 26.6 pmol/min/mg protein | Specific Activity Mean ± SD (CYP1A2; metaxalone 1 μM): 26.6 ± 0.327 pmol/min/mg protein | Percent of VC (CYP1A2; metaxalone 3 μM): 90.3% | Specific Activity Individual (CYP1A2; metaxalone 3 μM): 26.5 pmol/min/mg protein and 25.1 pmol/min/mg protein and 26.4 pmol/min/mg protein | Specific Activity Mean ± SD (CYP1A2; metaxalone 3 μM): 26.0 ± 0.785 pmol/min/mg protein | Percent of VC (CYP1A2; metaxalone 30 μM): 89.8% | Specific Activity Individual (CYP1A2; metaxalone 30 μM): 25.2 pmol/min/mg protein and 25.8 pmol/min/mg protein and 26.7 pmol/min/mg protein | Specific Activity Mean ± SD (CYP1A2; metaxalone 30 μM): 25.9 ± 0.725 pmol/min/mg protein | Percent of VC (CYP1A2; metaxalone 100 μM): 82.0% | Specific Activity Individual (CYP1A2; metaxalone 100 μM): 23.7 pmol/min/mg protein and 23.6 pmol/min/mg protein (2×) | Specific Activity Mean ± SD (CYP1A2; metaxalone 100 μM): 23.6 ± 0.0275 pmol/min/mg protein | Metaxalone Present Adjusted Individual (CYP2E1 [1]; metaxalone 0.5 μM): 0.357 µM and 0.345 µM and 0.353 µM | Metaxalone Present Adjusted Mean ± SD (CYP2E1 [1]; metaxalone 0.5 μM): 0.352 ± 0.00648 µM | Metaxalone Present Raw (CYP2E1 [1]; metaxalone 0.5 μM): 0.1787 µM and 0.1724 µM and 0.1766 µM | Percent of Metabolic Negative Control Individual (CYP2E1 [1]; metaxalone 0.5 μM): 101% and 97.0% and 99.4% | Percent of Metabolic Negative Control Mean ± SD (CYP2E1 [1]; metaxalone 0.5 μM): 99.0 ± 1.83% | Metaxalone Present Adjusted Individual (CYP2E1 [1]; metaxalone 2.5 μM): 1.77 μM and 1.76 μM (2×) | Metaxalone Present Adjusted Mean ± SD (CYP2E1 [1]; metaxalone 2.5 μM): 1.76 ± 0.00318 µM | Metaxalone Present Raw (CYP2E1 [1]; metaxalone 2.5 μM): 0.883 µM and 0.8799 µM and 0.8821 µM | Percent of Metabolic Negative Control Individual (CYP2E1 [1]; metaxalone 2.5 μM): 104% | Percent of Metabolic Negative Control Mean ± SD (CYP2E1 [1]; metaxalone 2.5 μM): 104 ± 0.188% | Metaxalone Present Adjusted Individual (CYP2E1 [1]; metaxalone 25 μM): 17.5 µM and 22.3 µM and 17.8 µM | Metaxalone Present Adjusted Mean ± SD (CYP2E1 [1]; metaxalone 25 μM): 19.2 ± 2.71 µM | Metaxalone Present Raw (CYP2E1 [1]; metaxalone 25 μM): 8.732 µM and 11.15 µM and 8.879 µM | Percent of Metabolic Negative Control Individual (CYP2E1 [1]; metaxalone 25 μM): 98.2% and 125% and 99.9% | Percent of Metabolic Negative Control Mean ± SD (CYP2E1 [1]; metaxalone 25 μM): 108 ± 15.3% | % Turnover Mean (CYP2A6; 0.75 μM metaxalone): 16.0% | % inhibition of turnover Mean (CYP2A6; 0.75 μM metaxalone): 46.2% | Mean Conc. (CYP2A6; 0.75 μM metaxalone): 0.648 µM | % Turnover (CYP2A6; 0.75 μM metaxalone): 13.9% and 14.7% and 19.4% | % inhibition of turnover (CYP2A6; 0.75 μM metaxalone): 53.2% and 50.6% and 34.9% | Conc. (CYP2A6; 0.75 μM metaxalone): 0.664 µM and 0.658 µM and 0.622 µM | % Turnover Mean (CYP2A6; 7.5 μM metaxalone): 12.1% | % inhibition of turnover Mean (CYP2A6; 7.5 μM metaxalone): 50.8% | Mean Conc. (CYP2A6; 7.5 μM metaxalone): 7.48 µM | % Turnover (CYP2A6; 7.5 μM metaxalone): 8.8% and 14.5% and 13.0% | % inhibition of turnover (CYP2A6; 7.5 μM metaxalone): 64.2% and 41.2% and 47.1% | Conc. (CYP2A6; 7.5 μM metaxalone): 7.76 µM and 7.28 µM and 7.41 µM | Inducer/Inhibitor (CYP2D6): − | Percent of VC (CYP2D6; Donor 3, Metaxalone 0.4 μM): 98.8% | Percent of VC (CYP2D6; Donor 3, Metaxalone 4 μM): 89.8% | Specific Activity Mean ± SD (CYP2D6; Donor 3, Metaxalone 4 μM): 0.533 ± 0.0146 pmol/min/million cells | CYP2D6 activity (CYP2D6; hepatocytes): below the lower limit of quantitation | Percent of VC (CYP2D6; human, 48 h, 4 μM): 100% | effect on CYP2D6 activity (CYP2D6; [3]): significantly reduced CYP2D6 activity | inhibition of CYP activity at a statistically significant level (CYP2E1 [2]; 0.3-100 μM metaxalone, p≦0.05): inhibited | Inhibitor (CYP2E1 [2]; CYP isozyme 2E1, summary of studies): + | inhibition at 30 min, 100 μM (CYP2E1 [2]; human, pooled human liver microsomes, probe chlorzoxazone 50 μM (to 6-hydroxy chlorzoxazone)): 12.8% | Percent of VC (CYP2E1 [2]; metaxalone 0.3 μM): 83.3% | Specific Activity Individual (CYP2E1 [2]; metaxalone 0.3 μM): 196 pmol/min/mg protein and 187 pmol/min/mg protein and 185 pmol/min/mg protein | Specific Activity Mean ± SD (CYP2E1 [2]; metaxalone 0.3 μM): 189 ± 6.08 pmol/min/mg protein | Percent of VC (CYP2E1 [2]; metaxalone 1 μM): 84.0% | Specific Activity Individual (CYP2E1 [2]; metaxalone 1 μM): 194 pmol/min/mg protein (2×) and 185 pmol/min/mg protein | Specific Activity Mean ± SD (CYP2E1 [2]; metaxalone 1 μM): 191 ± 5.18 pmol/min/mg protein | Percent of VC (CYP2E1 [2]; metaxalone 3 μM): 88.6% | Specific Activity Individual (CYP2E1 [2]; metaxalone 3 μM): 203 pmol/min/mg protein (2×) and 198 pmol/min/mg protein | Specific Activity Mean ± SD (CYP2E1 [2]; metaxalone 3 μM): 201 ± 2.94 pmol/min/mg protein | Percent of VC (CYP2E1 [2]; metaxalone 30 μM): 86.1% | Specific Activity Individual (CYP2E1 [2]; metaxalone 30 μM): 191 pmol/min/mg protein and 199 pmol/min/mg protein and 197 pmol/min/mg protein | Specific Activity Mean ± SD (CYP2E1 [2]; metaxalone 30 μM): 196 ± 3.88 pmol/min/mg protein | Percent of VC (CYP2E1 [2]; metaxalone 100 μM): 87.2% | Specific Activity Individual (CYP2E1 [2]; metaxalone 100 μM): 200 pmol/min/mg protein and 202 pmol/min/mg protein and 193 pmol/min/mg protein | Specific Activity Mean ± SD (CYP2E1 [2]; metaxalone 100 μM): 198 ± 4.66 pmol/min/mg protein

Reference: patent publication US20080292584A1 (priority 2005, published 2008)
